In general, % inhibition refers to the change of the read-out against control, counted positive when it falls. Higher therefore signals a strong effect. The inhibition is the drop in the measured response relative to a control, in per cent.

One test deals with cholesterol absorption from the intestine. The test is described as follows: In Vivo Assay of Hypolipidemic Agents using the Rat Cholesterol Absorption Model. On the set-up: species or system Female Sprague-Dawley rats. Particulars: Table 2, perorally, 1 mg/kg, 3H levels in serum three hours after 3H-cholesterol, versus vehicle only control. As for the experimental part:
In Vivo Assay of Hypolipidemic Agents using the Rat Cholesterol Absorption Model. This model is based on models described by Burnett et al (2002), Bioorg. Med. Chem. Lett. 2002 Feb 11;12(3):315-8 and J. Lipid Res. 1999 Oct;40(10):1747-57. Female Sprague-Dawley rats weighing 150-250g are separated into […] and fasted overnight. The animals (4-6/group) are dosed perorally with 300µL test compounds in olive oil or suitable vehicle. Thirty minutes later, 3-5 microCuries ^3H-cholesterol per rat are delivered perorally in 300 µL olive oil. After three hours, 200 µL serum is collected, vortexed with scintillation fluid, and measured for radioactivity in a scintillation counter. Percent inhibition is defined as 100*(1-Ctest/Cctrl), where Ctest and Cctrl refer to ^3H levels in serum for the test compound and for the vehicle only control, respectively. Percent inhibition values are reported for a fixed dose. The ED50 is the dose at which the half-maximal effect on serum ^3H levels is observed for a given test compound.
Representative compounds of the invention were tested in the Rat Cholesterol Absorption model above.
Consider `O=C1[C@H](CC[C@H](O)c2ccc(F)cc2)[C@@H](c2ccc(-c3cccc(P(=O)(O)O)c3)cc2)N1c1ccccc1` [Example 122, (4'-{(2S,3R)-3-[(3S)-3-(4-fIuorophenyI)-3-hydroxypropyl]-4-oxo-1-phenylazetidin-2-yl}biphenyl-3-yl)phosphonic acid], for which the “% inhibition at 1 mg/kg” value was found to be 67%.

Still in this test, the particulars now being: po, Table 1, footnote 1, perorally, 10 mg/kg, 3H levels in serum three hours after 3H-cholesterol.
As for `O=C1[C@H](CC[C@H](O)c2ccc(F)cc2)[C@@H](c2ccc(-c3ccccc3)cc2)N1c1ccc(F)cc1` [Example 3, (3R,4S)-4-Biphenyl-4-yl-1-(4-fluorophenyl)-3-[(3S)-3-(4-fluorophenyl)-3-hydroxypropyl]azetidin-2-one], testing at 10 mg/kg gave an inhibition of 15%.

Still in this test, the particulars now being: po, Table 1, perorally, 1 mg/kg, 3H levels in serum three hours after 3H-cholesterol, versus vehicle only control.
Consider `CN(C)S(=O)(=O)c1ccc(-c2ccc([C@@H]3[C@@H](CC[C@H](O)c4ccc(F)cc4)C(=O)N3c3ccc(F)cc3)cc2)cc1` [Example 15, 4'-{(2S,3R)-1-(4-fluorophenyl)-3-[(3S)-3-(4-fluorophenyl)-3-hydroxypropyl]-4-oxoazetidin-2-yl}-biphenyl-N,N-dimethylbiphenyl-4-sulfonamide], for which 1 mg/kg produced 8% inhibition. Still for that read-out and setting: under `O=C1[C@H](CC[C@H](O)c2ccc(F)cc2)[C@@H](c2ccc(-c3ccc(O)cc3O)cc2)N1c1ccc(F)cc1` [Example 108, (3R,4S)-4-(2',4'-dihydroxybiphenyl-4-yl)-1-(4-fluorophenyl)-3-[(3S)-3-(4-fluorophenyl)-3-hydroxypropyl]azetidin-2-one] stands 69%. The same measure, in the same setting: to `COc1ccc(-c2ccc([C@@H]3[C@@H](CC[C@H](O)c4ccc(F)cc4)C(=O)N3c3ccc(F)cc3)cc2)cc1OC` [Example 81, (3R,4S)-4-(3',4'-dimethoxybiphenyl-4-yl)-1-(4-fluorophenyl)-3-[(3 S)-3-(4-fluorophenyl)-3-hydroxypropyl]azetidin-2-one] belongs 17%; to `CCOc1ccc(-c2ccc([C@@H]3[C@@H](CC[C@H](O)c4ccc(F)cc4)C(=O)N3c3ccc(F)cc3)cc2)cc1` [Example 101, (3R,4S)-4-(4'-ethoxybiphenyl-4-yl)-1-(4-fluorophenyl)-3-[(3S)-3-(4-fluorophenyl)-3-hydroxypropyl]azetidin-2-one], 41%; to `O=C(O)c1ccc(-c2ccc([C@@H]3[C@@H](CC[C@H](O)c4ccc(F)cc4)C(=O)N3c3ccc(F)cc3)cc2)cc1O` [Example 110, 4'-{(2S,3R)-1-(4-fluorophenyl)-3-[(3S)-3-(4-fluorophenyl)-3-hydroxypropyl]-4-oxoazetidin-2-yl}-3-hydroxybiphenyl-4-carboxylic acid], 72%. `O=C1[C@H](CC[C@H](O)c2ccc(F)cc2)[C@@H](c2ccc(-c3cccc(B(O)O)c3)cc2)N1c1ccc(F)cc1` [Example 115, (4'-{(2S,3R)-1-(4-fluorophenyl)-3-[(3S)-3-(4-fluorophenyl)-3-hydroxypropyl]-4-oxoazetidin-2-yl}biphenyl-3-yl)boronic acid] gave an inhibition at 1 mg/kg of 70%. On the same count and under the same terms, under `CC(C)Oc1cccc(-c2ccc([C@@H]3[C@@H](CC[C@H](O)c4ccc(F)cc4)C(=O)N3c3ccc(F)cc3)cc2)c1` [Example 105, (3R,4S)-1-(4-fluorophenyl)-3-[(3S)-3-(4-fluorophenyl)-3-hydroxypropyl]-4-(3'-isopropoxybiphenyl-4-yl)azetidin-2-one] stands 15%; under `COc1cccc(-c2ccc([C@@H]3[C@@H](CC[C@H](O)c4ccc(F)cc4)C(=O)N3c3ccc(F)cc3)cc2)c1OC` [Example 11, (3R,4S)-4-(2',3'-dimethoxybiphenyl-4-yl)-1-(4-fluorophenyl)-3-[(3S)-3-(4-fluorophenyl)-3-hydroxypropyl]azetidin-2-one], 28%; under `COC(=O)c1ccc(-c2ccc([C@@H]3[C@@H](CC[C@H](O)c4ccc(F)cc4)C(=O)N3c3ccc(F)cc3)cc2)cc1` [Example 89, methyl 4'-{(2S,3R)-1-(4-fluorophenyl)-3-[(3S)-3-(4-fluorophenyl)-3-hydroxypropyl]-4-oxoazetidin-2-yl} biphenyl-4-carboxylate], 45%. As to `O=C1[C@H](CC[C@H](O)c2ccc(F)cc2)[C@@H](c2ccc(-c3cccc([C@@H]4O[C@@H](CO)[C@H](O)[C@@H](O)[C@@H]4O)c3)cc2)N1c1ccc(F)cc1` [Example 113, (1S)-1,5-anhydro-1-(4'-{(2S,3R)-1-(4-fluorophenyl)-3-[(3S)-3-(4-fluorophenyl)-3-hydroxypropyl]-4-oxoazetidin-2-yl}biphenyl-3-yl)-L-glucitol], at 1 mg/kg the inhibition was 67%. Still for that read-out and setting: to `C[N+](C)(C)c1cccc(-c2ccc([C@@H]3[C@@H](CC[C@H](O)c4ccc(F)cc4)C(=O)N3c3ccc(F)cc3)cc2)c1` [Example 120, 4'-{(2S,3R)-1-(4-fluorophenyl)-3-[(3S)-3-(4-fluorophenyl)-3-hydroxypropyl]-4-oxoazetidin-2-yl}-N,N,N-trimethylbiphenyl-3-aminium] belongs 23%; to `O=Cc1cccc(-c2ccc([C@@H]3[C@@H](CC[C@H](O)c4ccc(F)cc4)C(=O)N3c3ccc(F)cc3)cc2)c1` [Example 13, 4'-{(2S,3R)-1-(4-fluorophenyl)-3-[(3S)-3-(4-fluorophenyl)-3-hydroxypropyl]-4-oxoazetidin-2-yl}biphenyl-3-carbaldehyde], 70%; to `O=C1[C@H](CC[C@H](O)c2ccc(F)cc2)[C@@H](c2ccc(-c3cccc(C[C@@H]4O[C@H](CO)[C@@H](O)[C@H](O)[C@H]4O)c3)cc2)N1c1ccc(F)cc1` [Example 117, 2,6-anhydro-1-deoxy-1-(4'-{(2S,3R)-1-(4-fluorophenyl)-3-[(3S)-3-(4-fluorophenyl)-3-hydroxypropyl]-4-oxoazetidin-2-yl}biphenyl-3-yl)-D-glycero-D-gulo-heptitol], 26%. In the case of `Cc1cc(C)cc(-c2ccc([C@@H]3[C@@H](CC[C@H](O)c4ccc(F)cc4)C(=O)N3c3ccc(F)cc3)cc2)c1` [Example 90, (3R,4S)-4-(3',5'-dimethylbiphenyl-4-yl)-1-(4-fluorophenyl)-3-[(3S)-3-(4-fluorophenyl)-3-hydroxypropyl]azetidin-2-one], the inhibition at 1 mg/kg was 27%. Same read-out and setting: under `O=C1[C@H](CC[C@H](O)c2ccc(F)cc2)[C@@H](c2ccc(-c3cccc(CO)c3)cc2)N1c1ccc(F)cc1` [Example 16, (3R,4S)-1-(4-Fluorophenyl)-3-[(3S)-3-(4-fluorophenyl)-3-hydroxypropyl]-4-(3'-(hydroxymethyl)biphenyl-4-yl)azetidin-2-one] stands 72%; under `CCCOc1cccc(-c2ccc([C@@H]3[C@@H](CC[C@H](O)c4ccc(F)cc4)C(=O)N3c3ccc(F)cc3)cc2)c1` [Example 103, (3R,4S)-1-(4-fluorophenyl)-3-[(3S)-3-(4-fluorophenyl)-3-hydroxypropyl]-4-(3'-propoxybiphenyl-4-yl)azetidin-2-one], 21%; under `O=C1[C@H](CC[C@H](O)c2ccc(F)cc2)[C@@H](c2ccc(-c3cccc(O[C@H]4O[C@@H](CO)[C@H](O)[C@@H](O)[C@@H]4O)c3)cc2)N1c1ccc(F)cc1` [Example 95, 4'-{(2S,3R)-1-(4-fluorophenyl)-3-[(3S)-3-(4-fluorophenyl)-3-hydroxypropyl]-4-oxoazetidin-2-yl}biphenyl-3-yl β-L-glucopyranoside], 57%.

Staying with this test, now noted: po, Table 2, footnote mark 3 (defined only under Table 1: 5 mg/kg), perorally.
Turning to `O=C1[C@H](CC[C@H](O)c2ccc(F)cc2)[C@@H](c2ccc(-c3cccc(P(=O)(O)O)c3)cc2O)N1c1ccccc1` [Example 61, (4'-{(2S,3R)-3-[(3S)-3-(4-Fluorophenyl)-3-hydroxypropyl]-4-oxo-1-phenylazetidin-2-yl}-3'-hydroxybiphenyl-3-yl)phosphonic acid], testing at 5 mg/kg gave an inhibition of 58%.

Staying with this test, now noted: po, Table 2, perorally, 1 mg/kg, 3H levels in serum three hours after 3H-cholesterol, versus vehicle only control.
For the compound `O=C1[C@H](CCC(O)c2ccc(F)cc2)[C@@H](c2ccc(-c3cccc(S(=O)(=O)O)c3)cc2O)N1c1ccccc1` (stereo partly drawn) [Example 53, Sodium 4'-{(2S,3R)-3-[(3S/R)-3-(4-fluorophenyl)-3-hydroxypropyl]-4-oxo-1-phenylazetidin-2-yl}-3'-hydroxybiphenyl-3-sulfonate], 1 mg/kg produced 78% inhibition. As for `O=C1[C@H](CC[C@H](O)c2ccc(F)cc2)[C@@H](c2ccc(-c3ccc(O)cc3)cc2O)N1c1ccccc1` [Example 125, (3R,4S)-4-(3,4'-dihydroxybiphenyl-4-yl)-3-[(3S)-3-(4-fluorophenyl)-3-hydroxypropyl]-1-phenylazetidin-2-one], 1 mg/kg produced 64% inhibition. The same measure, in the same setting: to `O=C1[C@H](CC[C@H](O)c2ccc(F)cc2)[C@@H](c2ccc(-c3cccc([C@@H]4O[C@H](CO)[C@@H](O)[C@H](O)[C@H]4O)c3)cc2)N1c1ccccc1` [Example 64, (1S)-1,5-anhydro-1-(4'-{(2S,3R)-3-[(3S)-3-(4-fluorophenyl)-3-hydroxypropyl]-4-oxo-1-phenylazetidin-2-yl}biphenyl-3-yl)-D-glucitol] belongs 67%. On the same count and under the same terms, to `O=C1[C@H](CC[C@H](O)c2ccc(F)cc2)[C@@H](c2ccc(-c3cccc(O)c3)cc2)N1c1ccc(-c2ccccc2)cc1` [Example 124, (3R,4S)-1-biphenyl-4-yl-3-[(3S)-3-(4-fluorophenyl)-3-hydroxypropyl]-4-(3'-hydroxybiphenyl-4-yl)azetidin-2-one] belongs 48%.

These data come from patent publication EP1832576A1, “4-Biarylyl-1-phenolyzetidin-2-ones” (Microbia Inc., priority 2003, dated 2005).
